According to article PMC11642016 (International Journal of Molecular Sciences, 2024):
Where “and” joins values, the source holds several entries; their conditions need not be identical. Equal values may be shown once. Read-outs that look alike come from different tables or passages of the source.

Experiments:
PANC-1 cells = experiment: CellTiter-Glo luminescent cell viability assay, PANC-1
Experimental: (§1) Primary fibroblast cultures were prepared from human skin biopsies and maintained in DMEM supplemented with 10% FBS, 1% penicillin-streptomycin, and 1% MEM Non-Essential Amino Acids Solution (Thermo Fisher Scientific). […] All cell lines were cultured in a humidified atmosphere at 37 °C and 5% CO2, passaged twice a week, and the experiments were performed on cells between passage 5 and 15. The cell lines were routinely screened for the absence of mycoplasma infection (DAPI staining).
(§2) The effects of the synthesized compounds on cell viability were measured using the CellTiter-Glo® luminescent cell viability assay (Promega, Madison, WI, USA), according to the manufacturer’s instructions. Briefly, cells were seeded onto a flat-bottomed, white 96-well plate (BRANDplates, cat. no.: 781965)), with the following densities: PANC-1: 750 cells/well, Fadu: 2000 cells/well, primary fibroblasts: 2000 cells/well, HEK293T WT: 1000 cells/well, HEK293T CLPP^−/−: 2500 cells/well. After seeding, cells were incubated for a further 48 h before treatment. Cells were treated with the compounds for 72 h. Three concentrations (25.0 µM; 8.3 µM; 2.8 µM) were applied during the initial cell viability screening, while for the determination of dose–response curves, 1.5-fold serially diluted compound concentrations were applied (range: 26 µM–0.7 µM). After treatment, the luminescence signal was recorded using a microplate reader (BioTek Synergy 2 Multi-Mode Reader, BioTek, Winooski, VT, USA).
(§3) Data analysis was performed using GraphPad Prism 9.5.0 software (GraphPad Software, San Diego, CA, USA). […] The dose–response curves were generated by four-parameter nonlinear regression, and the IC50 values were determined as the means ± SEM of the best-fit values of 3 independent measurements. The R^2 values were consistently above 0.93, indicating a strong fit of the model to the experimental data (Supplementary S.89). […] Dunnett’s post hoc test was applied to adjust for multiple comparisons, minimizing the likelihood of false positive results. Assumptions for ANOVA, including normality (assessed via QQ plots) and homogeneity of variance (tested using the Brown–Forsythe test), were verified. The following significance levels were applied: * p < 0.05, ** p < 0.01, *** p < 0.001, **** p < 0.0001. […] The tumor selectivity of the compounds was quantitatively characterized by the selectivity index (SI). This parameter was calculated as the ratio of the average best-fit IC50 value for primary fibroblasts and the best-fit IC50 value for the corresponding tumor cells (PANC-1 or Fadu).

[1] = test system: non-tumorous primary fibroblast cells; experiment: CellTiter-Glo luminescent cell viability assay, primary fibroblasts; details: for Primer fibroblast Cell viability (% of controll): dose–response, individual replicates; for IC50: Homo sapiens, Fibroblast
Experimental: as §1, §2, §3

[2] = as above; details: human, primary skin fibroblasts (non-tumorous), Primer fibroblast Cell viability (% of controll), 72 h, dose–response, individual replicates
Experimental: as §1, §2, §3

Fadu cells = experiment: CellTiter-Glo luminescent cell viability assay, Fadu
[3] = 0.7 μM, 72 h, dose–response, individual replicates
[4] = 1 μM, 72 h, dose–response, individual replicates
[5] = 2.3 μM, 72 h, dose–response, individual replicates
[6] = 3.4 μM, 72 h, dose–response, individual replicates
[7] = 5.1 μM, 72 h, dose–response, individual replicates
[8] = 7.7 μM, 72 h, dose–response, individual replicates
[9] = 17.3 μM, 72 h, dose–response, individual replicates
[10] = 26 μM, 72 h, dose–response, individual replicates

Question: With `CNCC#Cc1cccc(CN2C(=O)C3=C(CCN(Cc4ccc(-n5cc(-c6ccc(F)cc6)nn5)cc4)C3)N3CCN=C23)c1` [43b] as the molecule, how does the “PANC-1 Cell viability (% of controll)” value (PANC-1 cells; [3]) read?
Answer: 103 % of controll and 101 % of controll

Question: What about the “PANC-1 Cell viability (% of controll)” value (PANC-1 cells; [4]) of the same molecule?
Answer: 107 % of controll

Question: What about the “PANC-1 Cell viability (% of controll)” value (PANC-1 cells; 1.5 μM, 72 h, dose–response, individual replicates) of the same molecule?
Answer: 99 % of controll and 110 % of controll

Question: What about the “PANC-1 Cell viability (% of controll)” value (PANC-1 cells; [5]) of the same molecule?
Answer: 102 % of controll and 103 % of controll

Question: What about the “PANC-1 Cell viability (% of controll)” value (PANC-1 cells; [6]) of the same molecule?
Answer: 10 % of controll and 7 % of controll

Question: And the “PANC-1 Cell viability (% of controll)” value (PANC-1 cells; [7])?
Answer: 0 % of controll

Question: And the “PANC-1 Cell viability (% of controll)” value (PANC-1 cells; [8])?
Answer: 0 % of controll

Question: What about the “PANC-1 Cell viability (% of controll)” value (PANC-1 cells; [9]) of the same molecule?
Answer: 0 % of controll

Question: And the “PANC-1 Cell viability (% of controll)” value (PANC-1 cells; [10])?
Answer: 0 % of controll

Question: What about the IC50 (PANC-1 cells; Homo sapiens, PANC-1, 72 h, read-out: IC50 Value ± SEM PANC-1, 72 h treatment, best-fit values, n = 3) of the same molecule?
Answer: 3.1 ± 0.17 µM

Question: What about the viability at 0.7 µM (PANC-1 cells; Homo sapiens, PANC-1, 72 h, read-out: PANC-1 Cell viability (% of controll), 0.7 μM, 72 h, dose–response, individual replicates) of the same molecule?
Answer: 104%

Question: And the viability at 1 µM (PANC-1 cells; Homo sapiens, PANC-1, 72 h, read-out: PANC-1 Cell viability (% of controll), 1 μM, 72 h, dose–response, individual replicates)?
Answer: 104%

Question: And the viability at 1.5 µM (PANC-1 cells; Homo sapiens, PANC-1, 72 h, read-out: PANC-1 Cell viability (% of controll), 1.5 μM, 72 h, dose–response, individual replicates)?
Answer: 104%

Question: What about the viability at 2.3 µM (PANC-1 cells; Homo sapiens, PANC-1, 72 h, read-out: PANC-1 Cell viability (% of controll), 2.3 μM, 72 h, dose–response, individual replicates) of the same molecule?
Answer: 106%

Question: What about the viability at 3.4 µM (PANC-1 cells; Homo sapiens, PANC-1, 72 h, read-out: PANC-1 Cell viability (% of controll), 3.4 μM, 72 h, dose–response, individual replicates) of the same molecule?
Answer: 13%

Question: And the viability at 5.1 µM (PANC-1 cells; Homo sapiens, PANC-1, 72 h, read-out: PANC-1 Cell viability (% of controll), 5.1 μM, 72 h, dose–response, individual replicates)?
Answer: 0%

Question: What about the viability at 7.7 µM (PANC-1 cells; Homo sapiens, PANC-1, 72 h, read-out: PANC-1 Cell viability (% of controll), 7.7 μM, 72 h, dose–response, individual replicates) of the same molecule?
Answer: 0%

Question: And the viability at 17.3 µM (PANC-1 cells; Homo sapiens, PANC-1, 72 h, read-out: PANC-1 Cell viability (% of controll), 17.3 μM, 72 h, dose–response, individual replicates)?
Answer: 0%

Question: What about the viability at 26 µM (PANC-1 cells; Homo sapiens, PANC-1, 72 h, read-out: PANC-1 Cell viability (% of controll), 26 μM, 72 h, dose–response, individual replicates) of the same molecule?
Answer: 0%

Question: And the IC50 (PANC-1 cells; Homo sapiens, PANC-1, read-out: PANC-1 IC50 values, Mean, mean of independently fitted replicate IC50 values (Supplement S.6))?
Answer: 3.06 µM

Question: What about the “Selectivity Index (SI) Fibroblast/PANC-1” value (PANC-1 cells; ratio of mean best-fit IC50 for primary fibroblasts and best-fit IC50 for PANC-1) of the same molecule?
Answer: 1.1

Question: What about the “Primer fibroblast Cell viability (% of controll)” value ([1]; 0.7 μM, 72 h) of the same molecule?
Answer: 105 % of controll and 104 % of controll

Question: And the “Primer fibroblast Cell viability (% of controll)” value ([1]; 1 μM, 72 h)?
Answer: 113 % of controll and 103 % of controll

Question: And the “Primer fibroblast Cell viability (% of controll)” value ([1]; 1.5 μM, 72 h)?
Answer: 105 % of controll and 97 % of controll

Question: And the “Primer fibroblast Cell viability (% of controll)” value ([1]; 2.3 μM, 72 h)?
Answer: 99 % of controll

Question: And the “Primer fibroblast Cell viability (% of controll)” value ([1]; 3.4 μM, 72 h)?
Answer: 89 % of controll and 54 % of controll and 50 % of controll

Question: What about the “Primer fibroblast Cell viability (% of controll)” value ([1]; 5.1 μM, 72 h) of the same molecule?
Answer: 0 % of controll

Question: And the “Primer fibroblast Cell viability (% of controll)” value ([1]; 7.7 μM, 72 h)?
Answer: 0 % of controll

Question: And the “Primer fibroblast Cell viability (% of controll)” value ([1]; 17.3 μM, 72 h)?
Answer: 0 % of controll

Question: What about the “Primer fibroblast Cell viability (% of controll)” value ([1]; 26 μM, 72 h) of the same molecule?
Answer: 0 % of controll

Question: And the IC50 ([1]; 72 h, read-out: IC50 Value ± SEM Primary Fibroblast, 72 h treatment, best-fit values, n = 3)?
Answer: 3.5 ± 0.17 µM

Question: And the IC50 ([1]; read-out: Primary fibroblast IC50 values, Mean, mean of independently fitted replicate IC50 values (Supplement S.6), ONC201 value mathematically estimated from inflection point)?
Answer: 3.46 µM

Question: What about the viability at 72 h, 0.7 µM ([2]; 0.7 μM) of the same molecule?
Answer: 96%

Question: What about the viability at 72 h, 1 µM ([2]; 1 μM) of the same molecule?
Answer: 102%

Question: What about the viability at 72 h, 1.5 µM ([2]; 1.5 μM) of the same molecule?
Answer: 107%

Question: What about the viability at 72 h, 2.3 µM ([2]; 2.3 μM) of the same molecule?
Answer: 105%

Question: And the viability at 72 h, 5.1 µM ([2]; 5.1 μM)?
Answer: 0%

Question: And the viability at 72 h, 7.7 µM ([2]; 7.7 μM)?
Answer: 0%

Question: And the viability at 72 h, 17.3 µM ([2]; 17.3 μM)?
Answer: 0%

Question: What about the viability at 72 h, 26 µM ([2]; 26 μM) of the same molecule?
Answer: 0%

Question: What about the “Fadu Cell viability (% of controll)” value (Fadu cells; [3]) of the same molecule?
Answer: 108 % of controll and 104 % of controll

Question: And the “Fadu Cell viability (% of controll)” value (Fadu cells; [4])?
Answer: 106 % of controll and 101 % of controll

Question: And the “Fadu Cell viability (% of controll)” value (Fadu cells; [5])?
Answer: 96 % of controll and 91 % of controll

Question: And the “Fadu Cell viability (% of controll)” value (Fadu cells; [6])?
Answer: 58 % of controll and 46 % of controll and 27 % of controll

Question: What about the “Fadu Cell viability (% of controll)” value (Fadu cells; [7]) of the same molecule?
Answer: 1 % of controll and 0 % of controll

Question: And the “Fadu Cell viability (% of controll)” value (Fadu cells; [8])?
Answer: 0 % of controll

Question: And the “Fadu Cell viability (% of controll)” value (Fadu cells; [9])?
Answer: 0 % of controll

Question: What about the “Fadu Cell viability (% of controll)” value (Fadu cells; [10]) of the same molecule?
Answer: 0 % of controll

Question: What about the viability at 0.7 µM (Fadu cells; Homo sapiens, FaDu, 72 h, read-out: Fadu Cell viability (% of controll), 0.7 μM, 72 h, dose–response, individual replicates) of the same molecule?
Answer: 108%

Question: What about the viability at 1 µM (Fadu cells; Homo sapiens, FaDu, 72 h, read-out: Fadu Cell viability (% of controll), 1 μM, 72 h, dose–response, individual replicates) of the same molecule?
Answer: 102%

Question: What about the viability at 1.5 µM (Fadu cells; Homo sapiens, FaDu, 72 h, read-out: Fadu Cell viability (% of controll), 1.5 μM, 72 h, dose–response, individual replicates) of the same molecule?
Answer: 105%

Question: What about the viability at 2.3 µM (Fadu cells; Homo sapiens, FaDu, 72 h, read-out: Fadu Cell viability (% of controll), 2.3 μM, 72 h, dose–response, individual replicates) of the same molecule?
Answer: 91%

Question: What about the viability at 7.7 µM (Fadu cells; Homo sapiens, FaDu, 72 h, read-out: Fadu Cell viability (% of controll), 7.7 μM, 72 h, dose–response, individual replicates) of the same molecule?
Answer: 0%

Question: And the viability at 17.3 µM (Fadu cells; Homo sapiens, FaDu, 72 h, read-out: Fadu Cell viability (% of controll), 17.3 μM, 72 h, dose–response, individual replicates)?
Answer: 0%

Question: What about the viability at 26 µM (Fadu cells; Homo sapiens, FaDu, 72 h, read-out: Fadu Cell viability (% of controll), 26 μM, 72 h, dose–response, individual replicates) of the same molecule?
Answer: 0%

Question: And the IC50 (Fadu cells; Homo sapiens, FaDu, 72 h, read-out: IC50 Value ± SEM Fadu, 72 h treatment, best-fit values, n = 3)?
Answer: 3.2 ± 0.06 µM

Question: And the IC50 (Fadu cells; Homo sapiens, FaDu, read-out: Fadu IC50 values, Mean, mean of independently fitted replicate IC50 values (Supplement S.6))?
Answer: 3.25 µM

Question: What about the “Selectivity Index (SI) Fibroblast/Fadu” value (Fadu cells; ratio of mean best-fit IC50 for primary fibroblasts and best-fit IC50 for Fadu) of the same molecule?
Answer: 1.1
